Key:
[1] = 40 min
Procedure: 35.0% azithromycin physical mixture was as well dispersed in Milli-Q® water to get a final concentration of azithromycin of 5.6% in vials. Furthermore, 5.6% coarse drug powder was suspended in Milli-Q® water for comparison. The samples were stored at 25° C. shaking with 100 rpm in an Innova® 4230 shaker for 40 minutes. To separate the dissolved drug, the samples were first centrifuged (17,968×g; 10 minutes) and subsequently the supernatant was filtered (50 nm pore size, Whatman® 110603 filter). The drug concentration in such obtained sample was determined by HPLC.

[2] = at 25° C. in water, Mauludin PhD thesis 2008; cited from earlier work

saturation solubility in water [1] [µg/mL] | SMILES | saturation solubility Cs [2]
93 | CC[C@H]1OC(=O)[C@H](C)[C@@H](O[C@H]2C[C@@](C)(OC)[C@@H](O)[C@H](C)O2)[C@H](C)[C@@H](O[C@@H]2O[C@H](C)C[C@H](N(C)C)[C@H]2O)[C@](C)(O)C[C@@H](C)CN(C)[C@H](C)[C@@H](O)[C@]1(C)O [azithromycin raw drug powder, azithromycin] | 
 | COc1ccc([C@@H]2CC(=O)c3c(O)cc(O[C@@H]4O[C@H](CO[C@@H]5O[C@@H](C)[C@H](O)[C@@H](O)[C@H]5O)[C@@H](O)[C@H](O)[C@H]4O)cc3O2)cc1O [hesperidin raw powder, hesperidin] | about 20 μg/ml

Reference: US20170246111A1, “ACTIVE-LOADED PARTICULATE MATERIALS FOR TOPICAL ADMINISTRATION” (PHARMASOL GMBH, priority 2014, published 2017)
